Here are results for eleven compounds from ChEMBL document CHEMBL1201862, “PubChem BioAssay data set” (2004).

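Following 48 hours of exposure in 96-well plates, responses at five concentrations were used to interpolate endpoints linearly. Here, GI50 denotes the concentration required for 50% inhibition of growth.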 Active and inactive are the calls of the source. Cut-off read from the data, not from the text of the source: active = GI50 up to about 1.1 µM and inactive = higher. A value given as a limit tells only on which side of the number the result lay.

Experiment in all cases: inhibition of tumour cell growth, NCI panel, 48 h
For test [1], the system named is DLD-1.
In test [2] the test system is DMS-273.
Test [3] deals with KM-20L2.
For test [4], the system named is M19-MEL.
Test [5] relates to SNB-78.
Test [6] relates to XF498.
Test [7] deals with HOP-18.
The subject of test [8] is RXF 631.
Test [9] relates to T47D.

Take `O=C(NCCOC(=O)CCCCCCCCC(=O)OCCNC(=O)NC(=O)c1cn(Cc2ccccc2)c(=O)[nH]c1=O)NC(=O)c1cn(Cc2ccccc2)c(=O)[nH]c1=O`: the GI50 in test [1], in [2], in [3], in [4], in [5] and in test [6] was > 100 µM (inactive) throughout.

On to `Cc1ccc(NC(=O)c2cc3cc(/N=N/c4ccc(Br)cc4)ccc3oc2=O)cc1`, for which the GI50 in test [1] was 46.5 µM (inactive); in test [2], 41.8 µM (inactive); in test [7] it was < 0.01 µM (active); in test [5], > 100 µM (inactive); in [6] it was > 100 µM (inactive).

`N#Cc1ccccc1NC(=O)C(=O)C(C(=O)c1ccccc1-c1ccccc1)C1OC(=O)c2ccccc21` (configuration not stated): the GI50 in test [1] is 16 µM (inactive); in test [3], 20.9 µM (inactive); in test [4], 14.8 µM (inactive); in test [5], 11.2 µM (inactive); in [6] it was 16 µM (inactive).

Consider `N#Cc1nn(-c2ccc(Cl)cc2)c(=N)c2c(N)n3nc(-c4ccccc4)cc3nc12`, for which the GI50 is 1 µM (active) in [1]; 1 µM (active) in test [2]; < 0.01 µM (active) in [7]; 1 µM (active) in test [3]; 1 µM (active) in test [5]; 41.4 µM (inactive) in test [6].

Regarding `CC(C)N(C(=O)C12C3C4C5C3C1(C#N)C5C42)C(C)C` (configuration not stated), the GI50 in [1], in [2], in [7], in test [3], in [4] and in test [5] was > 100 µM (inactive) in each case. Besides, the GI50 in test [6] was > 100 µM (inactive).

Consider `Cc1c(C)c2ccc3oc4ccccc4c3c2oc1=O`, for which the GI50 in [1], in [7], in test [3], in test [4], in test [8] and in test [5] was > 100 µM (inactive) in each case.

For `C[n+]1c2ccccc2c(/C=N\NS(=O)(=O)c2ccc(Cl)cc2)c2ccccc21`, the GI50 in [1] is 67.5 µM (inactive); in test [2] it was 41.8 µM (inactive); in test [3], 42.4 µM (inactive); in test [4], 81.7 µM (inactive); in test [5] it was > 100 µM (inactive); in [6], 27.3 µM (inactive).

Take `CCOC(=O)NC(=O)c1cn(CCCOC(=O)CCCCCCCCC(=O)OCCCn2cc(C(=O)NC(=O)OCC)c(=O)[nH]c2=O)c(=O)[nH]c1=O`: the GI50 in test [1] is 17.8 µM (inactive); in [2] it was 20.5 µM (inactive); in test [7], 29.1 µM (inactive); in test [3], 34.5 µM (inactive); in [4], 12.9 µM (inactive); in test [5], 8 µM (inactive). Further, in test [6], the GI50 is 20.7 µM (inactive).

In the case of `c1cc2n(n1)CCN2`, the GI50 was 5420 µM (inactive) in test [1]; 262 µM (inactive) in test [2]; 4030 µM (inactive) in test [7]; 2970 µM (inactive) in test [3]; 6870 µM (inactive) in test [4]; 4740 µM (inactive) in test [5]. The GI50 in test [9] is 347 µM (inactive); in test [6], 431 µM (inactive).

On to `COc1ccc2cc3c4cc(OC)c(OC)cc4ccn3c2c1`, for which the GI50 in test [1], in [2], in test [7], in [4], in test [5] and in [6] was > 100 µM (inactive) each time.

With `Cc1cc(C)c(C(=O)/C=C/c2ccccc2)c(C)c1`, the GI50 was 22.6 µM (inactive) in [1]; > 100 µM (inactive) in [7]; 32.6 µM (inactive) in test [3]; 28.5 µM (inactive) in test [4]; 12.6 µM (inactive) in [6].
